Measured values published in patent publication US11708318B2, “Polymorphic forms of RAD1901-2HCL” (Radius Pharmaceuticals, Inc., priority 2017, dated 2023).
Like-named read-outs stand apart in the source and are kept apart here.

Test: Solubility assessment of Sample 1 (majorly Form 1) in 24 solvent systems
Format: physicochemical
Details: organic solvent or mixture
Procedure: Solubility assessment was carried out on the Sample 1 of RAD1901-2HCl (majorly Form 1 shown by XRPD) in 24 solvent systems in HPLC vials (sample IDs: A1 to A24). RAD1901-2HCl (25 mg) was treated with increasing volumes of solvent until the material fully dissolved or until a maximum of 60 vol had been used (Table 13).
After each addition of solvent, the system was stirred for 5 to 10 minutes at 25° C., then shaken at 50° C. for 5 to 10 minutes, and observations made. Samples were allowed to stand at room temperature for 5 min before the addition of a new aliquot of solvent. After the assessment was completed, the suspensions obtained were matured (maturation) and the clear solutions were cooled (cooling) and slowly evaporated (evaporation) as described below. All solids recovered from maturation, cooling and evaporation experiments were analyzed by high resolution XRPD.

Which results are given for `CCNCCc1ccc(CN(CC)c2cc(OC)ccc2[C@@H]2CCc3cc(O)ccc3C2)cc1.Cl.Cl` [Sample 1]?
solubility (1,2-dimethoxyethane, 50 °C, thermodynamic from solid, 1,2-dimethoxyethane, sample ID A16, read-out: Solubility assessment 10 vol.): < 100 mg/mL; solubility (1,2-dimethoxyethane, 50 °C, thermodynamic from solid, 1,2-dimethoxyethane, sample ID A16, read-out: Solubility assessment 20 vol.): < 50 mg/mL; solubility (1,2-dimethoxyethane, 50 °C, thermodynamic from solid, 1,2-dimethoxyethane, sample ID A16, read-out: Solubility assessment 40 vol.): < 25 mg/mL; solubility (1,2-dimethoxyethane, 50 °C, thermodynamic from solid, 1,2-dimethoxyethane, sample ID A16, read-out: Solubility assessment 60 vol.): < 16.7 mg/mL; solubility (1,4-dioxane, 50 °C, thermodynamic from solid, 1,4-Dioxane, sample ID A14, read-out: Solubility assessment 10 vol.): < 100 mg/mL; solubility (1,4-dioxane, 50 °C, thermodynamic from solid, 1,4-Dioxane, sample ID A14, read-out: Solubility assessment 20 vol.): < 50 mg/mL; solubility (1,4-dioxane, 50 °C, thermodynamic from solid, 1,4-Dioxane, sample ID A14, read-out: Solubility assessment 40 vol.): < 25 mg/mL; solubility (1,4-dioxane, 50 °C, thermodynamic from solid, 1,4-Dioxane, sample ID A14, read-out: Solubility assessment 60 vol.): < 16.7 mg/mL; solubility (1-propanol, 50 °C, thermodynamic from solid, 1-propanol, sample ID A8, read-out: Solubility assessment 10 vol.): < 100 mg/mL; solubility (1-propanol, 50 °C, thermodynamic from solid, 1-propanol, sample ID A8, read-out: Solubility assessment 20 vol.): < 50 mg/mL; solubility (1-propanol, 50 °C, thermodynamic from solid, 1-propanol, sample ID A8, read-out: Solubility assessment 40 vol.): < 25 mg/mL; solubility (1-propanol, 50 °C, thermodynamic from solid, 1-propanol, sample ID A8, read-out: Solubility assessment 60 vol.): < 16.7 mg/mL; solubility (2-propanol, 50 °C, thermodynamic from solid, 2-propanol, sample ID A6, read-out: Solubility assessment 10 vol.): < 100 mg/mL; solubility (2-propanol, 50 °C, thermodynamic from solid, 2-propanol, sample ID A6, read-out: Solubility assessment 20 vol.): < 50 mg/mL; solubility (2-propanol, 50 °C, thermodynamic from solid, 2-propanol, sample ID A6, read-out: Solubility assessment 40 vol.): < 25 mg/mL; solubility (2-propanol, 50 °C, thermodynamic from solid, 2-propanol, sample ID A6, read-out: Solubility assessment 60 vol.): < 16.7 mg/mL; solubility (10% water/EtOH, 50 °C, thermodynamic from solid, 10% water/EtOH, sample ID A22, read-out: Solubility assessment 10 vol.): 50 to 100 mg/mL; solubility (10% water/EtOH, 50 °C, thermodynamic from solid, 10% water/EtOH, sample ID A22, read-out: Solubility assessment 20 vol.): 50 to 100 mg/mL; solubility (10% water/IPA, 50 °C, thermodynamic from solid, 10% water/IPA, sample ID A23, read-out: Solubility assessment 10 vol.): < 100 mg/mL; solubility (10% water/IPA, 50 °C, thermodynamic from solid, 10% water/IPA, sample ID A23, read-out: Solubility assessment 20 vol.): < 50 mg/mL; solubility (10% water/IPA, 50 °C, thermodynamic from solid, 10% water/IPA, sample ID A23, read-out: Solubility assessment 40 vol.): 16.7 to 25 mg/mL; solubility (10% water/IPA, 50 °C, thermodynamic from solid, 10% water/IPA, sample ID A23, read-out: Solubility assessment 60 vol.): 16.7 to 25 mg/mL; solubility (10% water/THF, 50 °C, thermodynamic from solid, 10% water/THF, sample ID A24, read-out: Solubility assessment 10 vol.): < 100 mg/mL; solubility (10% water/THF, 50 °C, thermodynamic from solid, 10% water/THF, sample ID A24, read-out: Solubility assessment 20 vol.): < 50 mg/mL; solubility (10% water/THF, 50 °C, thermodynamic from solid, 10% water/THF, sample ID A24, read-out: Solubility assessment 40 vol.): 16.7 to 25 mg/mL; solubility (10% water/THF, 50 °C, thermodynamic from solid, 10% water/THF, sample ID A24, read-out: Solubility assessment 60 vol.): 16.7 to 25 mg/mL; solubility (MEK, 50 °C, thermodynamic from solid, MEK, sample ID A7, read-out: Solubility assessment 10 vol.): < 100 mg/mL; solubility (MEK, 50 °C, thermodynamic from solid, MEK, sample ID A7, read-out: Solubility assessment 20 vol.): < 50 mg/mL; solubility (MEK, 50 °C, thermodynamic from solid, MEK, sample ID A7, read-out: Solubility assessment 40 vol.): < 25 mg/mL; solubility (MEK, thermodynamic from solid, MEK, sample ID A7, read-out: Solubility assessment 60 vol.): < 16.7 mg/mL; solubility (MIBK, 50 °C, thermodynamic from solid, MIBK, sample ID A5, read-out: Solubility assessment 10 vol.): < 100 mg/mL; solubility (MIBK, 50 °C, thermodynamic from solid, MIBK, sample ID A5, read-out: Solubility assessment 20 vol.): < 50 mg/mL; solubility (MIBK, 50 °C, thermodynamic from solid, MIBK, sample ID A5, read-out: Solubility assessment 40 vol.): < 25 mg/mL; solubility (MIBK, thermodynamic from solid, MIBK, sample ID A5, read-out: Solubility assessment 60 vol.): < 16.7 mg/mL; solubility (TBME, 50 °C, thermodynamic from solid, TBME, sample ID A13, read-out: Solubility assessment 10 vol.): < 100 mg/mL; solubility (TBME, 50 °C, thermodynamic from solid, TBME, sample ID A13, read-out: Solubility assessment 20 vol.): < 50 mg/mL; solubility (TBME, 50 °C, thermodynamic from solid, TBME, sample ID A13, read-out: Solubility assessment 40 vol.): < 25 mg/mL; solubility (TBME, thermodynamic from solid, TBME, sample ID A13, read-out: Solubility assessment 60 vol.): < 16.7 mg/mL; solubility (acetone, 50 °C, thermodynamic from solid, Acetone, sample ID A9, read-out: Solubility assessment 10 vol.): < 100 mg/mL; solubility (acetone, 50 °C, thermodynamic from solid, Acetone, sample ID A9, read-out: Solubility assessment 20 vol.): < 50 mg/mL; solubility (acetone, 50 °C, thermodynamic from solid, Acetone, sample ID A9, read-out: Solubility assessment 40 vol.): < 25 mg/mL; solubility (acetone, 50 °C, thermodynamic from solid, Acetone, sample ID A9, read-out: Solubility assessment 60 vol.): < 16.7 mg/mL; solubility (acetonitrile, 50 °C, thermodynamic from solid, Acetonitrile, sample ID A19, read-out: Solubility assessment 10 vol.): < 100 mg/mL; solubility (acetonitrile, 50 °C, thermodynamic from solid, Acetonitrile, sample ID A19, read-out: Solubility assessment 20 vol.): < 50 mg/mL
